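How tested: cells in 96-well plates exposed to compound for 48 hours at five concentrations. At the GI50, growth is halved.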 Calls of active or inactive are those of the source. Rule as the data show it: active = GI50 up to about 1.1 µM and inactive = higher. Square brackets hold non-standard residues; d marks the D form. Peptide text beside a SMILES is read from it. 2Nal = N[CH](Cc1ccc2ccccc2c1)C(=O)O
What was measured:
Assay in all cases: inhibition of tumour cell growth, NCI panel, 48 h
LXFL 529 = test system: LXFL 529
DMS-114 = test system: DMS-114
HOP-18 = test system: HOP-18
KM-20L2 = test system: KM-20L2
M19-MEL = test system: M19-MEL
SNB-78 = test system: SNB-78
DMS-273 = test system: DMS-273
XF498 = test system: XF498
RXF 631 = test system: RXF 631

Row | Compound | GI50 (LXFL 529) | GI50 (DMS-114) | GI50 (HOP-18) | GI50 (KM-20L2) | GI50 (M19-MEL) | GI50 (SNB-78) | GI50 (DMS-273) | GI50 (XF498) | GI50 (RXF 631)
1 | O=C(CSc1nnc(Cc2ccccc2)o1)Nc1cccc([N+](=O)[O-])c1 | > 100 µM (inactive) | > 100 µM (inactive) | > 100 µM (inactive) | > 100 µM (inactive) | > 100 µM (inactive) | > 100 µM (inactive) | > 100 µM (inactive) | – | –
2 | CCOc1ccc(NCC(=O)N2CC(=O)Nc3ccccc32)cc1 | > 100 µM (inactive) | – | > 100 µM (inactive) | > 100 µM (inactive) | > 100 µM (inactive) | > 100 µM (inactive) | > 100 µM (inactive) | > 100 µM (inactive) | –
3 | COc1cc(NC(C)=O)c2[nH]c3c(C)cc(NC(C)=O)c(C)c3c2c1 | > 100 µM (inactive) | > 100 µM (inactive) | > 100 µM (inactive) | > 100 µM (inactive) | > 100 µM (inactive) | – | > 100 µM (inactive) | > 100 µM (inactive) | –
4 | O=C1c2ccccc2C(=O)N1Cc1ccccc1-c1c2nc(c(-c3ccccc3CN3C(=O)c4ccccc4C3=O)c3ccc([nH]3)c(-c3ccccc3CN3C(=O)c4ccccc4C3=O)c3nc(c(-c4ccccc4CN4C(=O)c5ccccc5C4=O)c4ccc1[nH]4)C=C3)C=C2 | > 100 µM (inactive) | > 100 µM (inactive) | > 100 µM (inactive) | > 100 µM (inactive) | > 100 µM (inactive) | > 100 µM (inactive) | > 100 µM (inactive) | – | –
5 | NCCNc1ccc(NCCN)c2c1C(=O)c1c(O)ccc(O)c1C2=O | 0.00807 µM (active) | < 0.001 µM (active) | 0.361 µM (active) | 0.0181 µM (active) | 0.0197 µM (active) | 0.207 µM (active) | < 0.001 µM (active) | < 0.001 µM (active) | < 0.001 µM (active)
6 | Cc1cc(NS(=O)(=O)c2ccc(NC(=O)COC(=O)c3cccc4c(=O)c5ccccc5[nH]c34)cc2)no1 | > 100 µM (inactive) | > 100 µM (inactive) | – | > 100 µM (inactive) | > 100 µM (inactive) | > 100 µM (inactive) | > 100 µM (inactive) | > 100 µM (inactive) | –
7 | COC(=O)C(CC(C)C)NC(=O)NC12CC3CC(CC(F)(C3)C1)C2 (stereo not given) | > 100 µM (inactive) | > 100 µM (inactive) | – | > 100 µM (inactive) | > 100 µM (inactive) | > 100 µM (inactive) | – | – | > 100 µM (inactive)
8 | Cc1c(C)c2cc3c(=O)c(CCl)coc3c(C)c2oc1=O | > 100 µM (inactive) | > 100 µM (inactive) | > 100 µM (inactive) | > 100 µM (inactive) | > 100 µM (inactive) | > 100 µM (inactive) | – | – | > 100 µM (inactive)
9 | CC(C)=CCc1c(O)cc(O)c2c1OC(c1ccc(O)cc1)C(O)C2=O (stereo not given) | 28.8 µM (inactive) | 39.4 µM (inactive) | 17.8 µM (inactive) | 18.1 µM (inactive) | 35.7 µM (inactive) | 24.3 µM (inactive) | – | 30.2 µM (inactive) | 31.8 µM (inactive)
10 | Cc1ccc(Sc2ccccc2[N+](=O)[O-])cc1 | 29.6 µM (inactive) | – | > 100 µM (inactive) | 33.3 µM (inactive) | 32.1 µM (inactive) | 36.6 µM (inactive) | 28.6 µM (inactive) | – | –
11 | O=C[C@@H](CO)O[C@H](C=O)n1cnc2c(=O)nc[nH]c21 | – | 39.2 µM (inactive) | 388 µM (inactive) | 426 µM (inactive) | 346 µM (inactive) | 562 µM (inactive) | 101 µM (inactive) | 459 µM (inactive) | –
12 | COC(=O)C(Cc1nc2ccc(Cl)cc2nc1O)/C(=N/O)C(=O)Nc1cccc(Cl)c1C (stereo not given) | > 100 µM (inactive) | > 100 µM (inactive) | > 100 µM (inactive) | > 100 µM (inactive) | > 100 µM (inactive) | > 100 µM (inactive) | > 100 µM (inactive) | > 100 µM (inactive) | –
13 | CC(C)OC(=O)C1Cc2c([nH]c3ccccc23)C(c2ccccc2)N1 (stereo not given) | 79.6 µM (inactive) | 52.4 µM (inactive) | – | > 100 µM (inactive) | > 100 µM (inactive) | > 100 µM (inactive) | > 100 µM (inactive) | > 100 µM (inactive) | –
14 | CCOC(=O)/C(C#N)=C1/C(O)=C(C(=O)OC)C(C(=O)OC)=C1C(=O)OC.c1ccncc1 | > 100 µM (inactive) | – | – | > 100 µM (inactive) | > 100 µM (inactive) | – | > 100 µM (inactive) | – | –
15 | CCOc1cccc2sc(N)nc12 | > 100 µM (inactive) | > 100 µM (inactive) | > 100 µM (inactive) | > 100 µM (inactive) | > 100 µM (inactive) | > 100 µM (inactive) | > 100 µM (inactive) | – | –
16 | C[N+](C)(C)CC(=O)N/N=C(\CCC(=O)NCCc1ccccc1)CC(=O)c1ccccc1 | > 100 µM (inactive) | > 100 µM (inactive) | > 100 µM (inactive) | > 100 µM (inactive) | > 100 µM (inactive) | > 100 µM (inactive) | > 100 µM (inactive) | > 100 µM (inactive) | –
17 | Cc1nc2ccc(NCCN(C)C)c3c(=O)c4cc(O)ccc4n1c23 | 0.752 µM (active) | 0.885 µM (active) | – | – | 1.54 µM (inactive) | – | 0.189 µM (active) | 1.56 µM (inactive) | 0.0355 µM (active)
18 | COc1cc(C(=O)C/C(CCC(=O)Nc2ccc(Cl)cc2Cl)=N/NC(=O)C(N)=O)ccc1O | > 100 µM (inactive) | > 100 µM (inactive) | > 100 µM (inactive) | > 100 µM (inactive) | > 100 µM (inactive) | > 100 µM (inactive) | > 100 µM (inactive) | > 100 µM (inactive) | > 100 µM (inactive)
19 | COc1cccc(N[C@@H]2c3cc4c(cc3C(c3cc(OC)c(O)c(OC)c3)[C@H]3C(=O)OCC32)OCO4)c1 (stereo not given in full) | – | 0.578 µM (active) | 1.52 µM (inactive) | 1.46 µM (inactive) | 0.624 µM (active) | 5.36 µM (inactive) | 0.148 µM (active) | 1.12 µM (inactive) | –
20 | COc1cc2c(c(OC)c1OC)-c1ccc(SC)c(=O)cc1[C@@H](NCc1ccc(C#N)cc1)CC2 | 0.0053 µM (active) | 0.00236 µM (active) | – | 0.00194 µM (active) | 0.00361 µM (active) | 0.00531 µM (active) | 0.0034 µM (active) | 0.00321 µM (active) | –
21 | CC(C)C(NC(=O)C(CCCCN)NC(=O)C(Cc1c[nH]c2ccccc12)NC(=O)C(Cc1ccc(O)cc1)NC(=O)C(CS)NC(=O)C(N)Cc1ccc2ccccc2c1)C(=O)NC(CS)C(=O)NC(C(N)=O)C(C)O (stereo not given) (H-[2Nal]CYWKVCT-NH2; configuration not given here) | > 100 µM (inactive) | > 100 µM (inactive) | > 100 µM (inactive) | > 100 µM (inactive) | > 100 µM (inactive) | 8.15 µM (inactive) | > 100 µM (inactive) | > 100 µM (inactive) | > 100 µM (inactive)

Reference: ChEMBL document CHEMBL1201862, “PubChem BioAssay data set” (2004)
